Reference: ChEMBL document CHEMBL1156329, “Bioisostere of valtrate, anti-HIV principle by inhibition for nuclear export of Rev” (Bioorg Med Chem Lett, 2010)
Active and inactive are the calls of the source. No cut-off for these calls is given here.

How the values were obtained:
[1] = Inhibition of hemagglutininin-tagged HIV1 Rev protein nuclear export in human HeLa cells assessed as protein localization after 12 hrs by indirect fluorescent antibody technique; assay type: cell-based, Human immunodeficiency virus 1
HeLa = assay: Inhibition of hemagglutininin-tagged HIV1 Rev protein nuclear export in human HeLa cells assessed as protein localization at 10 uM after 12 hrs by indirect fluorescent antibody technique; assay type: cell-based; settings: Human immunodeficiency virus 1

| Compound | IC50 [1] [µM] | inhibition (HeLa) |
| --- | --- | --- |
| CC(=O)OCC1=CO[C@@H](OC(=O)CC(C)C)[C@H]2C1=C[C@H](OC(=O)CC(C)C)[C@]21CO1 [VALTRATE] | 2.5 | – |
| CC(=O)OCC1=CO[C@@H](OC(=O)CC(C)C)[C@H]2[C@@H]1C[C@H](OC(=O)CC(C)C)[C@]21CO1 | 4.4 | Active |
